Here are results for 20 compounds from patent US11090304B2 (Amgen Inc., priority 2018, dated 2021).

In assay [1] the test system is Phosphorylation of ERK1/2 in MIA PaCa-2 cells. In words: Phospho-ERK1/2 MSD assay in MIA PaCa-2 cells. Format: cell-based. In outline: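 In the procedure, cells were plated a day ahead at 25,000 per well. Next, a dilution series of compound in growth medium was added for 2 or 4 h. EGF (10 ng/mL) stimulation for 10 min preceded washing and RIPA lysis. Lysate phospho-ERK1/2 was read by MSD, with IC50 derived by 4-parameter logistic analysis.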

Assay [2] deals with Phosphorylation of ERK1/2 in A549 cells. In words: Phospho-ERK1/2 MSD assay in A549 cells. Format: cell-based. As for the experimental part: For compounds in Table 89, the following assay conditions were employed:
Phospho-ERK1/2 MSD Assay:
Sixteen hours prior to compound treatment, MIA PaCa-2 or A549 cells were seeded in 96-well cell culture plates at a density of 25,000 cells/well and incubated at 37° C., 5% CO2. A compound dose-response titration was diluted in growth media, added to appropriate wells of a cell culture plate, and then incubated at 37° C., 5% CO2 for 2 or 4 hours (see Table 15). Following compound treatment, cells were stimulated with 10 ng/mL EGF (Roche 11376454001) for 10 min, washed with ice-cold Dulbecco's phosphate-buffered saline, no Ca^2+ or Mg^2+ (ThermoFisher Scientific 14190144), and then lysed in RIPA buffer (50 mM Tris-HCl pH 7.5, 1% Igepal, 0.5% sodium deoxycholate, 150 mM NaCl, and 0.5% sodium dodecyl sulfate) containing protease inhibitors (Roche 4693132001) and phosphatase inhibitors (Roche 4906837001). Phosphorylation of ERK1/2 in compound-treated lysates was assayed using Phospho-ERK1/2 Whole Cell Lysate kits (Meso Scale Discovery K151DWD) according to the manufacturer's protocol. Assay plates were read on a Meso Scale Discovery Sector Imager 6000, and data were analyzed using a 4-parameter logistic model to calculate IC50 values.

The target in assay [3] is GDP-bound KRAS protein (aa 1-169), containing both G12C and C118A amino acid substitutions (Homo sapiens, UniProt P01116, C118A/G12C). The assay is described as follows: Coupled nucleotide exchange assay (SOS-mediated, AlphaScreen). The note with it: 5 min compound pre-incubation. It counts as biochemical. (In Alpha technology, singlet oxygen from a donor bead excites a nearby acceptor bead.)
GDP-bound KRAS protein (aa 1-169), containing both G12C and C118A amino acid substitutions, sequence (P01116 1-169 isoform P01116-2 G12C/C118A): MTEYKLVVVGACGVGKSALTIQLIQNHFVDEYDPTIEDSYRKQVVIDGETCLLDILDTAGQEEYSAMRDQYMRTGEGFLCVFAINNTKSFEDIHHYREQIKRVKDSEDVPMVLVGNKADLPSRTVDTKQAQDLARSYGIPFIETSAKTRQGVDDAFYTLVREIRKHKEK

The mark [4] stands for this setting: read-out: p-ERK IC50 (2 h; MIA PaCa-2), 2 h compound treatment.
Setting [5] is: Homo sapiens, A549, 2 h, read-out: p-ERK IC50 (2 h; A549), 2 h compound treatment.
The mark [6] stands for this setting: Homo sapiens, MIA PaCa-2, 2 h, read-out: p-ERK IC50 (2 h; MIA PaCa-2), 2 h compound treatment.

Like-named read-outs stand apart in the source and are kept apart here. Some results are limits rather than exact numbers.

On to `C=CC(=O)N1CCN(c2nc(=O)n(-c3ccccc3C(C)C)c3cc(Br)c(Cl)cc23)[C@@H](C)C1` (single isomer, unassigned) [Example 9-17-1], for which the IC50 in assay [1] (read-out: p-ERK IC50 (4 h; MIA PaCa-2), 4 h compound treatment) is 2180 nM; in assay [2] (read-out: p-ERK IC50 (4 h; A549), 4 h compound treatment) it was 75800 nM.

Regarding `C=CC(=O)N1CCN(c2nc(=O)n(-c3ccccc3C(C)C)c3nc(-c4ccccc4Cl)c(Cl)cc23)[C@@H](C)C1` (single isomer, unassigned) [Example 54-84-1], the half-inhibitory concentration (IC50) in assay [1] (setting [4]) was 744 nM; in assay [2] (setting [5]) it was at least 100000 nM.

As for `C=CC(=O)N1CCN(c2nc(=O)n(-c3ccccc3C(C)C)c3nc(-c4ccccc4F)c(Cl)cc23)[C@@H](C)C1` (single isomer, unassigned) [Example 54-86-1], the values for the IC50 in assay [1] (setting [4]) and in assay [2] (setting [5]) were 670 nM and at least 10000 nM, respectively.

As to `C=CC(=O)N1CCN(c2nc(=O)n(-c3ccccc3C(C)C)c3nc(-c4c(O)cccc4F)c(Cl)cc23)CC1` (single isomer, unassigned) [Example 60-24-1, (M)-6-chloro-7-(2-fluoro-6-hydroxyphenyl)-1-(2-(2-propanyl)phenyl)-4-(4-(2-propenoyl)-1-piperazinyl)pyrido[2,3-d]pyrimidin-2(1H)-one], in assay [2] (setting [5]), the 50% inhibitory concentration (IC50) is at least 100000 nM.

For the compound `C=CC(=O)N1CCN(c2nc(=O)n(-c3ccccc3C(C)C)c3cc(-c4ccccc4F)c(Cl)cc23)[C@@H](C)C1` (single isomer, unassigned) [Example 62-1-1], the 50% inhibitory concentration (IC50) in assay [1] (setting [4]) is 431 nM; in assay [2] (setting [5]), at least 10000 nM.

For the compound `C=CC(=O)N1CCN(c2nc(=O)n(-c3ccccc3C(C)C)c3cc(-c4ccccc4F)c(Cl)cc23)CC1` (single isomer, unassigned) [Example 88-1, 6-chloro-7-(2-fluorophenyl)-1-(2-(2-propanyl)phenyl)-4-(4-(2-propenoyl)-1-piperazinyl)-2(1H)-quinazolinone], in assay [2] (setting [5]), the IC50 was at least 10000 nM.

`C=CC(=O)N1CCN(c2nc(=O)n(-c3ccccc3C(C)C)c3cc(-c4ccccc4C(F)(F)F)c(Cl)cc23)[C@@H](C)C1` [Example 62-2, 6-chloro-4-((2S)-2-methyl-4-(2-propenoyl)-1-piperazinyl)-1-(2-(2-propanyl)phenyl)-7-(2-(trifluoromethyl)phenyl)-2(1H)-quinazolinone]: the 50% inhibitory concentration (IC50) in assay [2] (setting [5]) is at least 10000 nM.

Take `C=CC(=O)N1CCN(c2nc(=O)n(-c3c(C)ccnc3C(C)C)c3nc(-c4ccccc4F)c(Cl)nc23)[C@@H](C)C1` [Example 111, 6-Chloro-7-(2-fluorophenyl)-1-(4-methyl-2-(2-propanyl)-3-pyridinyl)-4-((2S)-2-methyl-4-(2-propenoyl)-1-piperazinyl)-2(1H)-pteridinone]: the “Coupled exchange IC50 (5 min)” value in assay [3] is listed as 0.174 | nda μM. Also, the 50% inhibitory concentration (IC50) in assay [1] (setting [6]) worked out at 195 nM.

Consider `C=CC(=O)N1CCN(c2nc(=S)n(-c3c(CC)cccc3CC)c3cc(-c4ccccc4F)c(Cl)cc23)[C@@H](C)C1` [Example 116, 1-((3S)-4-(6-Chloro-1-(2,6-diethylphenyl)-7-(2-fluorophenyl)-2-sulfanylidene-1,2-dihydro-4-quinazolinyl)-3-methyl-1-piperazinyl)-2-propen-1-one], for which, in assay [3], the “Coupled exchange IC50 (5 min)” value is on record as 0.232 | nda μM. Besides, the IC50 in assay [1] (setting [6]) was determined as 543 nM.

`C=CC(=O)N1CCN(c2cc(=O)n(-c3ccccc3C(C)C)c3nc(-c4ccccc4F)c(Cl)cc23)[C@@H](C)C1` [Example 126, 6-Chloro-7-(2-fluorophenyl)-4-((2S)-2-methyl-4-(2-propenoyl)-1-piperazinyl)-1-(2-(2-propanyl)phenyl)-1,8-naphthyridin-2(1H)-one]: the “Coupled exchange IC50 (5 min)” value in assay [3] is 2.05 | nda μM. For the same compound, the 50% inhibitory concentration (IC50) in assay [1] (setting [6]) was 1720 nM.

For `C=CC(=O)N1CCN(c2nc(=O)n(-c3c(C(=O)O)cccc3C(C)C)c3nc(-c4ccccc4F)c(Cl)cc23)[C@@H](C)C1` [Example 132, 2-(6-Chloro-7-(2-fluorophenyl)-4-((2S)-2-methyl-4-(2-propenoyl)-1-piperazinyl)-2-oxopyrido[2,3-d]pyrimidin-1(2H)-yl)-3-(2-propanyl)benzoic acid], the “Coupled exchange IC50 (5 min)” value in assay [3] is reported as 0.107 | nda μM. Besides, the IC50 in assay [1] (setting [6]) stood at 10000 nM.

Consider `C=CC(=O)N1CCN(c2nc(=O)n(-c3c(Cl)ncnc3C(C)C)c3nc(-c4ccccc4F)c(Cl)cc23)[C@@H](C)C1` [Example 133, 6-Chloro-1-(4-chloro-6-(2-propanyl)-5-pyrimidinyl)-7-(2-fluorophenyl)-4-((2S)-2-methyl-4-(2-propenoyl)-1-piperazinyl)pyrido[2,3-d]pyrimidin-2(1H)-one], for which, in assay [3], the “Coupled exchange IC50 (5 min)” value is 0.119 | nda μM. For the same compound, the IC50 in assay [1] (setting [6]) worked out at 198 nM.

Consider `C=CC(=O)N1CCN(c2nc(=O)n(-c3c(C)cc(N)nc3C(C)C)c3nc(-c4ccccc4F)c(Cl)cc23)[C@@H](C)C1` [Example 136, 1-(6-Amino-4-methyl-2-(2-propanyl)-3-pyridinyl)-6-chloro-7-(2-fluorophenyl)-4-((2S)-2-methyl-4-(2-propenoyl)-1-piperazinyl)pyrido[2,3-d]pyrimidin-2(1H)-one], for which, in assay [3], the “Coupled exchange IC50 (5 min)” value was 0.135 | nda μM. Moreover, the half-inhibitory concentration (IC50) in assay [1] (setting [6]) was found to be 121 nM.

Regarding `C=CC(=O)N1CCN(c2nc(=O)n(-c3c(C)cc(O)nc3C(C)C)c3nc(-c4ccccc4F)c(Cl)cc23)[C@@H](C)C1` [Example 137, 6-chloro-7-(2-fluorophenyl)-1-(4-methyl-6-oxo-2-(2-propanyl)-1,6-dihydro-3-pyridinyl)-4-((2S)-2-methyl-4-(2-propenoyl)-1-piperazinyl)pyrido[2,3-d]pyrimidin-2(1H)-one], in assay [3], the “Coupled exchange IC50 (5 min)” value is given as 0.5 | nda μM. In assay [1] (setting [6]), the half-maximal inhibitory concentration (IC50) came out at 1790 nM.

`C=CC(=O)N1CCN(c2nnc(-c3c(C(C)C)cccc3C(C)C)c3nc(-c4ccccc4F)c(Cl)cc23)[C@@H](C)C1` [Example 138, 1-((3S)-4-(3-Chloro-8-(2,6-di(2-propanyl)phenyl)-2-(2-fluorophenyl)pyrido[2,3-d]pyridazin-5-yl)-3-methyl-1-piperazinyl)-2-propen-1-one]: the “Coupled exchange IC50 (5 min)” value in assay [3] was 1.75 | nda μM. For the same compound, the IC50 in assay [1] (setting [6]) came to 1590 nM.

Consider `C=CC(=O)N1CCN(c2nc(=O)n(-c3c(C(C)C)nc(N)nc3C(C)C)c3nc(-c4ccccc4F)c(Cl)cc23)[C@@H](C)C1` [Example 139, 1-(2-Amino-4,6-di(2-propanyl)-5-pyrimidinyl)-6-chloro-7-(2-fluorophenyl)-4-((2S)-2-methyl-4-(2-propenoyl)-1-piperazinyl)pyrido[2,3-d]pyrimidin-2(1H)-one], for which, in assay [3], the “Coupled exchange IC50 (5 min)” value is on record as 0.117 | nda μM. The IC50 in assay [1] (setting [6]) worked out at 25 nM.

Turning to `C=CC(=O)N1CCN(c2nc(=O)n(-c3c(C(C)C)ncnc3N(C)C)c3nc(-c4ccccc4F)c(Cl)cc23)[C@@H](C)C1` [Example 140, 6-Chloro-1-(4-(dimethylamino)-6-(2-propanyl)-5-pyrimidinyl)-7-(2-fluorophenyl)-4-((2S)-2-methyl-4-(2-propenoyl)-1-piperazinyl)pyrido[2,3-d]pyrimidin-2(1H)-one], in assay [3], the “Coupled exchange IC50 (5 min)” value is recorded as 0.09 | nda μM. Also, in assay [1] (setting [6]), the half-inhibitory concentration (IC50) is 96 nM.

As for `C=CC(=O)N1CCN(c2nc(=O)n(-c3c(C)cc(C(=O)O)cc3C(C)C)c3nc(-c4ccccc4F)c(Cl)cc23)[C@@H](C)C1` [Example 141, 4-(6-Chloro-7-(2-fluorophenyl)-4-((2S)-2-methyl-4-(2-propenoyl)-1-piperazinyl)-2-oxopyrido[2,3-d]pyrimidin-1(2H)-yl)-3-methyl-5-(2-propanyl)benzoic acid], in assay [3], the “Coupled exchange IC50 (5 min)” value was 0.393 | nda μM. Besides, the IC50 in assay [1] (setting [6]) is 5200 nM.

Take `C=CC(=O)N1CCN(c2nc(=O)n(-c3c(N)cccc3C(C)C)c3nc(-c4ccccc4F)c(Cl)cc23)[C@@H](C)C1` [Example 155, 1-(2-Amino-6-(2-propanyl)phenyl)-6-chloro-7-(2-fluorophenyl)-4-((2S)-2-methyl-4-(2-propenoyl)-1-piperazinyl)pyrido[2,3-d]pyrimidin-2(1H)-one]: the “Coupled exchange IC50 (5 min)” value in assay [3] is given as 0.108 | nda μM. Besides, the IC50 in assay [1] (setting [6]) stood at 103 nM.

Turning to `C=CC(=O)N1CCN(c2nc(=O)n(-c3c(C)cc(C(=O)OC)cc3C(C)C)c3nc(-c4ccccc4F)c(Cl)cc23)[C@@H](C)C1` [Example 156, Methyl 4-(6-chloro-7-(2-fluorophenyl)-4-((2S)-2-methyl-4-(2-propenoyl)-1-piperazinyl)-2-oxopyrido[2,3-d]pyrimidin-1(2H)-yl)-3-methyl-5-(2-propanyl)benzoate], in assay [3], the “Coupled exchange IC50 (5 min)” value is on record as 0.057 | nda μM. For the same compound, in assay [1] (setting [6]), the IC50 is 80 nM.

Usually IC50 stands for the concentration that gives 50% inhibition.
